These results are taken from US4910211A, “Novel benzothiazole and antirheumatic agent comprising it as an active ingredient” (Kanebo Ltd., priority 1987, dated 1990).

The subject of series [1] is rat adjuvant arthritis. Put plainly: Effect on the Development of Adjuvant Arthritis. Format: in vivo, Fischer male rats. The conditions noted are these: oral; for inhibition in vivo at 100 mg/kg / inhibition in vivo at 50 mg/kg: Rattus norvegicus, 504 h, 21 days after adjuvant, mean ± standard error. Here is the method:
Fischer male rats (8 weeks old; body weight 120-180 g) were grouped so that the average of body weights among the groups were nearly the same. Then, 0.1 ml of complete adjuvant obtained by suspending Mycobacterium butyricum (Difco Laboratories) in paraffin oil in a concentration of 6 mg/ml was injected into the footpad of the right hind paw to induce adjuvant arthritis.
Each of the test compounds was dissolved or suspended in a 1% gum arabic solution, and administered orally once a day on six days a week over a period of three weeks starting from the day of the adjuvant injection. The group administered with a 1% gum arabic solution instead of the test compound was served for a control. The volumes of both hind paws were measured plethysmographically by displacement of water at various times after injection of the adjuvant, and the percent paw edema inhibition was calculated from the following equation. [formula] Eexp : the percent paw edema in rats treated with the test compound Econt : the mean of percent paw edema in rats of the control group
The percent paw edema was calculated from the following equation. [formula] Vpost : the paw volume after treatment with the adjuvant Vpre : the paw volume before treatment with the adjuvant

The subject of series [2] is Delayed-Type Hypersensitivity (DTH), normal immune reaction. The experiment in a line: Effect on Delayed-Type Hypersensitivity (DTH): normal immune reaction. Format: in vivo, BALB/c male mice. The conditions noted are these: for Footpad swelling inhibition / Footpad swelling: oral, normal immune reaction; for Footpad swelling: mean ± standard error. Here is the method:
BALB/c male mice (8 weeks old) were sensitized by injection into the tail vein with 0.2 ml of 5×10^6 /ml sheep red blood cells (SRBC). Three days after the sensitization, 0.05 ml of 8×10^9 /ml SRBC was injected into the footpad of the right hind paw for elicitation of DTH. Footpad thickness was measured immediately before and 24 hours after the elicitation with a dial thickness gauge. The level of DTH was expressed as footpad swelling (mm) at 24 hour. The inhibition (%) of footpad swelling was calculated from the following equation.
The test compound was dissolved or suspended in a 1% gum arabic solution, and administered orally once a day over a period of 7 days starting from four days before the sensitization. To a control group, a 1% gum arabic solution was administered instead of the test compound. [formula] Texp : the mean of the footpad swelling in mice treated with the test compound
Tcont : the mean of the footpad swelling in mice of the control group

Series [3] has as its system Delayed-Type Hypersensitivity (DTH), enhanced immune reaction. Put plainly: Effect on Delayed-Type Hypersensitivity (DTH): enhanced immune reaction. The conditions noted are these: for Footpad swelling inhibition / Footpad swelling: oral, cyclophosphamide 75 mg/kg; for Footpad swelling: mean ± standard error. Format: in vivo, BALB/c male mice. Here is the method:
Three days after the sensitization, 0.05 ml of 8×10^9 /ml SRBC was injected into the footpad of the right hind paw for elicitation of DTH. Twenty four hours later, footpad swelling (mm) was measured in the same way as in (A) above, and the inhibition (%) of footpad swelling was calculated from the following equation.
The test compound was dissolved or suspended in a 1% gum arabic solution, and administered orally once a day over a period of 7 days starting from four days before the sensitization (immediately after administration of cyclophosphamide). To a control group, a 1% gum arabic solution was administered instead of the test compound. The group, administered with physiological saline instead of cyclophosphamide and a 1% gum arabic solution instead of test compound respectively, was served for a normal group. [formula] Tcont : the mean of the footpad swelling in mice of the control group Texp : the mean of the footpad swelling in mice treated with the test compound
Tnor : the mean of the footpad swelling in mice of the normal group.

For series [4], the system named is rat carrageenin-induced paw edema. The experiment in a line: rat carrageenin-induced paw edema (acute inflammation). Particulars: 100 mg/kg. Format: in vivo. Background: In the carrageenan paw model, swelling and tenderness develop within hours.
Series [5] relates to rat mustard-induced paw edema. Put plainly: rat mustard-induced paw edema (subacute inflammation). Format: in vivo. Particulars: 100 mg/kg.
Series [6] can be described thus: in vivo. Particulars: mouse, oral, mice died within a week, probit method. Here is the method: ddY male mice (body weight about 23 g) were fasted overnight, and the test compound dissolved or suspended in a 1% gum arabic solution administered orally. From the number of mice died within a week, the LD50 value was calculated by the probit method.
Setting [7] is: 100 mg/kg, read-out: Paw edema inhibition, Non-treated paw.
Where [8] appears, read: 100 mg/kg, read-out: Paw edema inhibition, Treated paw.
The mark [9] stands for this setting: 3 mg/kg, ** P < 0.01 vs control.
[10] abbreviates: 10 mg/kg, ** P < 0.01 vs control.
[11] abbreviates: 30 mg/kg, * P < 0.05, ** P < 0.01 vs control.
Where [12] appears, read: 100 mg/kg, * P < 0.05 vs control.

Entries after “also recorded” stand apart in the source; their conditions may differ. Where two headings read alike, the source gives them in different places.

By LD50 is commonly meant the dose expected to kill half of the subjects tested. Low readings indicate a more toxic substance, high ones a less toxic substance.

Regarding `CC(=O)Oc1cccc2nc(-c3ccc(C)cc3)sc12` [C, 7-acetoxy-2-(4-methylphenyl)benzothiazole], the inhibition in vivo at 100 mg/kg in series [1] (setting [7]) came out at 8.9 ± 10.4%; in series [1] (setting [8]), 16.6 ± 4.1%.
Regarding `O=C([O-])c1ccccc1Nc1cc(Cl)ccc1C(=O)[O-].[Na+].[Na+]` [Lobenzarit disodium, N-(2-carboxyphenyl)-4-chloroanthranilic acid disodium salt], the “death during the test” value in series [1] (100 mg/kg, adjuvant arthritis rats, footnote of Table 1) is recorded as “Four animals out of 16”. The inhibition in vivo at 50 mg/kg in series [1] (read-out: Paw edema inhibition, Non-treated paw) was -9 ± 12%; in series [1] (read-out: Paw edema inhibition, Treated paw), 6.3 ± 5.3%. Besides, the inhibition in vivo at 100 mg/kg is -1.7 ± 11.4% in series [1] (setting [7]) and 15.1 ± 6.6% in series [1] (setting [8]). The Footpad swelling inhibition in series [2] (1 mg/kg) is given as 4.3%; in series [2] (3 mg/kg) it was 8.6%; in series [2] (10 mg/kg) it was -8.6%; in series [2] (30 mg/kg), 7.1%; in series [2] (100 mg/kg), 7.1%; in series [3] (1 mg/kg), 20.0%. In addition, the Footpad swelling inhibition in series [3] (3 mg/kg) is 40.0%; in series [3] (10 mg/kg), -10.0%; in series [3] (30 mg/kg) it was 50.0%; in series [3] (100 mg/kg), 50.0%. Moreover, the Footpad swelling in series [2] (1 mg/kg) is recorded as 67 ± 2 × 10^-2 mm; in series [2] (3 mg/kg) it was 64 ± 5 × 10^-2 mm; in series [2] (10 mg/kg), 76 ± 6 × 10^-2 mm; in series [2] (30 mg/kg), 65 ± 4 × 10^-2 mm; in series [2] (100 mg/kg), 65 ± 5 × 10^-2 mm; in series [3] (1 mg/kg, * P < 0.05 vs control), 47 ± 3 × 10^-2 mm. In addition, the Footpad swelling in series [3] (setting [9]) was 43 ± 3 × 10^-2 mm; in series [3] (setting [10]) it was 53 ± 3 × 10^-2 mm; in series [3] (setting [11]), 41 ± 3 × 10^-2 mm; in series [3] (setting [12]), 41 ± 3 × 10^-2 mm. Besides, in series [2] (any doses, disodium salt), the “effect on DTH in a normal immune reaction (in words)” value is listed as “did not inhibit footpad swelling at any doses; also recorded: no effect on a normal immune reaction”. The “effect on DTH in an enhanced immune reaction (in words)” value in series [3] (any doses) is given as “suppresses an abnormally enhanced immune reaction”. Also, the “effect on rat carrageenin-induced paw edema” value in series [4] is “no effect”. Also, the “effect on rat mustard-induced paw edema” value in series [5] is on record as “no effect”.
As to `COc1ccc(-c2nc3c(OC(C)=O)cccc3s2)cc1` [Example 6, 4-Acetoxy-2-(4-methoxyphenyl)benzothiazole], the inhibition in vivo at 100 mg/kg in series [1] (setting [7]) was found to be 27.4 ± 10.8%; in series [1] (setting [8]), 24.7 ± 3.7%. This molecule yielded an LD50 at 168 h in series [6] of more than 3000 mg/kg.
With `CC(=O)Oc1ccc2sc(-c3ccc(C)cc3)nc2c1` [A, 5-acetoxy-2-(4-methylphenyl)benzothiazole], the inhibition in vivo at 100 mg/kg in series [1] (setting [7]) came out at 4.5 ± 11.7%; in series [1] (setting [8]) it was 12.9 ± 4.4%.
For `CC(=O)Oc1ccc2nc(-c3ccc(C)cc3)sc2c1` [B, 6-acetoxy-2-(4-methylphenyl)benzothiazole], the inhibition in vivo at 100 mg/kg in series [1] (setting [7]) is 4.4 ± 14.2%; in series [1] (setting [8]), -7.6 ± 8.8%.
For the molecule `CC(=O)Oc1cccc2sc(-c3ccc(C(=O)O)cc3)nc12` [Example 7, 4-(4-Acetoxybenzothiazol-2-yl)benzoic acid], the results for the inhibition in vivo at 100 mg/kg in series [1] (setting [7]) and in series [1] (setting [8]) were 38.5 ± 6% and 29.9 ± 2.9%, respectively. The same molecule came in with an LD50 at 168 h in series [6] of 2020 mg/kg.
Take `CC(=O)Oc1cccc2sc(-c3ccc(C)cc3)nc12` [Example 5, 4-Acetoxy-2-(4-methylphenyl)benzothiazole]: the inhibition in vivo at 100 mg/kg was determined as 32 ± 7.7% in series [1] (setting [7]) and 31.8 ± 3.9% in series [1] (setting [8]). For the same molecule, the Footpad swelling inhibition in series [2] (1 mg/kg) is reported as 0.0%; in series [2] (3 mg/kg) it was -6.8%; in series [2] (10 mg/kg), 3.4%; in series [2] (30 mg/kg), -8.5%; in series [2] (100 mg/kg), 10.2%; in series [3] (1 mg/kg), 57.1%. In addition, the Footpad swelling inhibition in series [3] (3 mg/kg) was 66.7%; in series [3] (10 mg/kg) it was 85.7%; in series [3] (30 mg/kg) it was 76.2%; in series [3] (100 mg/kg), 57.1%. Besides, the Footpad swelling in series [2] (1 mg/kg) is on record as 59 ± 5 × 10^-2 mm; in series [2] (3 mg/kg) it was 63 ± 6 × 10^-2 mm; in series [2] (10 mg/kg), 57 ± 6 × 10^-2 mm; in series [2] (30 mg/kg), 64 ± 6 × 10^-2 mm; in series [2] (100 mg/kg), 53 ± 4 × 10^-2 mm; in series [3] (1 mg/kg, * P < 0.05 vs control), 37 ± 5 × 10^-2 mm. The Footpad swelling in series [3] (setting [9]) is 35 ± 1 × 10^-2 mm; in series [3] (setting [10]), 31 ± 3 × 10^-2 mm; in series [3] (setting [11]), 33 ± 2 × 10^-2 mm; in series [3] (setting [12]), 37 ± 4 × 10^-2 mm. In series [6], this molecule displayed an LD50 at 168 h of more than 3000 mg/kg.
For `COC(=O)c1ccc(-c2nc3c(OC(C)=O)cccc3s2)cc1` [Example 8, Methyl 4-(4-acetoxybenzothiazol-2-yl)benzoate], the inhibition in vivo at 100 mg/kg was 28.6 ± 8.8% in series [1] (setting [7]) and 29.3 ± 3.6% in series [1] (setting [8]). In series [6], this molecule returned an LD50 at 168 h of more than 3000 mg/kg.
